# Results published in patent US20060111368A1, “Phosphodiesterase inhibitor” (Kyowa Hakko Kogyo Co., Ltd., priority 2002, published 2006).
# Where a name gives a salt, the structure may show the parent alone.
# Assays:
# [1] = tested on: MDA-MB-231 (human breast cancer cell); experiment: Cell growth inhibitory activity (MTT-type colorimetric assay); assay type: cell-based; settings: MDA-MB-231, 72 h, 10 μmol/L, 3 days of culture
# Method: Cell Growth Inhibitory Activity
# Cell growth inhibitory activity of compound 12 was examined on MDA-MB-231 (human breast cancer cell: American Type Culture Collection) using an in-vitro cell growth assay [3-(4,5-dimethylthiazol-2-yl)-2,5-diphenyl tetrazolium bromide (MTT)]-type calorimetric assay [Leukemia, vol. 7, p. 1637, (1993)].
# MDA-MB-231 (2.5×10^4 cells/mL, 270 μL) was inoculated on a 48-well plate, and cultured overnight. In the culture, Leibovitz's L-15 (Gibco) containing. 10% fetal calf serum (Hi-Clone), 0.05 units/mL of penicillin (Gibco) and 0.05 μg/mL of streptomycin (Gibco) was used as a culture medium. 30 μL of compound 12 dissolved in the same medium containing 0.1% dimethyl sulfoxide (DMSO; Wako Pure Chemical Industries) was added to each well. After 3 days of culture, 30 μL of MTT (Dojin Kagaku Kenkyusho, adjusted to a concentration of 5 mg/mL with PBS) was added to each well. After 4 hours of culture, 900 μL of DMSO was added to dissolve the cells. The cell solution was moved to a 96-well plate in amounts of 200 μL each, and fluorescence intensity OD590-630was measured with an automated microplate reader EL340 (Biotech Instruments). […] (medium containing 0.1% DMSO alone was added) and OD (blank) is fluorescence intensity (OD590-630) of the same medium containing 0.1% DMSO. […]
# [2] = tested on: 6-hydroxydopamine (6OHDA)-treated rats; experiment: Test for activity to hyperkinesia in 6-hydroxydopamine (6OHDA)-treated rats; assay type: in vivo, rat; settings: 50 mg/kg test compound intraperitoneally, then L-DOPA 30 mg/kg and benserazide 7.5 mg/kg orally; vehicle group 1,298±193; 180° rotation = 1 count
# Method: Test for Activity to Hyperkinesia in 6-hydroxydopamine (6OHDA)-Treated Rats
# When the unilateral nigrostriatal pathway is lesioned with 6-OHDA, sensitivity of dopamine receptors in the striatum on the lesioned side is increased. When a dopamine activity enhancing substance such as L-DOPA is administered thereto, a rotating behavior takes place on the side opposite to the lesioned side. This animal model has been long positioned as an excellent test model of Parkinson's disease, and has been used for research of therapeutic agent for Parkinson's disease [Neurol. Neurobiol. vol. 33, p. 1 (1987)]. […]
# After withdrawal of the administration of apomorphine for 14 days, L-DOPA and bensetazide were orally administered to the rats at doses of 100 mg/kg and 25 mg/kg respectively to induce hyperkinesia. At this time, the number of rotations was measured for 60 minutes immediately after the administration. […]
# After 7 days from the dividing into groups, the number of rotations for 60 minutes was measured by similar manner as that of above-mentioned. […] Immediately after the administration, 30 mg/kg of L-DOPA and 7.5 mg/kg of benserazide were orally administered to A and B groups, and the number of rotations for 60 minutes was measured every 5 minutes. […]
compound,measurement,setting,value
"Cc1c(-c2ccc(-c3ccccc3CN3CCOCC3)cc2)nc2ccc(F)cc2c1CO [Compound 12, 6-Fluoro-4-hydroxymethyl-3-methyl-2-(2′-morpholinomethylbiphenyl-4-yl)quinoline dihydrochloride]",inhibition at 10 µM,[1],39%
same,total number of rotations for 60 minutes,[2],48±20
